Source: US10676527B2, “Methods and compositions for modulation of blood-neural barrier” (Ludwig Institute for Cancer Research Ltd, priority 2006, dated 2020)
Where a name gives a salt, the structure may show the parent alone.

Key:
PDGFR-α = PDGFR-α (Homo sapiens, UniProt P16234); settings: known from the art; cited from earlier work
BBB = assay: Evans Blue extravasation (BBB opening) after intraventricular injection; format: in vivo; settings: Example 1, FIG. 1; C57BL6 mice, 2 μl intraventricular, 3 μM, 1 hour after injection
Protocol: (§1) Wild type C57BL6 mice (10 Week old) were injected intraventricularly into the dorsal third ventricle with 2 μl of PBS, active PDGF-AA, PDGF-BB (both from Preprotech Inc.) and PDGF-CC (see below) (3 μM). Evans Blue was given intravenously immediately after the injection. One hour after the injection, the animals were perfused with PBS and the brain tissue was removed and processed for Evans Blue extravasation.
as §1, with “of either” for “of”, “PBS, wild type murine tPA (3 μM),” for “PBS,”, “active” for “active PDGF-AA, PDGF-BB (both from Preprotech Inc.) and”, “(3 μM), or wild type murine tPA (3 μM) plus active PDGF-CC” for “(see below)”
Wt C57BL6 mice (10 Week old) were injected intraventricularly with 3 μl of either PBS, wild type murine tPA (3 μM), wild type murine tPA (3 μM) with rabbit anti-PDGF-CC (150 μg/ml). Evans Blue was given intravenously immediately after the injection. One hour after the injection, the animals were perfused with PBS and the brain tissue was removed and processed for Evans Blue extravasation.

Sequence of PDGFR-α (P16234 24-1089, species assumed): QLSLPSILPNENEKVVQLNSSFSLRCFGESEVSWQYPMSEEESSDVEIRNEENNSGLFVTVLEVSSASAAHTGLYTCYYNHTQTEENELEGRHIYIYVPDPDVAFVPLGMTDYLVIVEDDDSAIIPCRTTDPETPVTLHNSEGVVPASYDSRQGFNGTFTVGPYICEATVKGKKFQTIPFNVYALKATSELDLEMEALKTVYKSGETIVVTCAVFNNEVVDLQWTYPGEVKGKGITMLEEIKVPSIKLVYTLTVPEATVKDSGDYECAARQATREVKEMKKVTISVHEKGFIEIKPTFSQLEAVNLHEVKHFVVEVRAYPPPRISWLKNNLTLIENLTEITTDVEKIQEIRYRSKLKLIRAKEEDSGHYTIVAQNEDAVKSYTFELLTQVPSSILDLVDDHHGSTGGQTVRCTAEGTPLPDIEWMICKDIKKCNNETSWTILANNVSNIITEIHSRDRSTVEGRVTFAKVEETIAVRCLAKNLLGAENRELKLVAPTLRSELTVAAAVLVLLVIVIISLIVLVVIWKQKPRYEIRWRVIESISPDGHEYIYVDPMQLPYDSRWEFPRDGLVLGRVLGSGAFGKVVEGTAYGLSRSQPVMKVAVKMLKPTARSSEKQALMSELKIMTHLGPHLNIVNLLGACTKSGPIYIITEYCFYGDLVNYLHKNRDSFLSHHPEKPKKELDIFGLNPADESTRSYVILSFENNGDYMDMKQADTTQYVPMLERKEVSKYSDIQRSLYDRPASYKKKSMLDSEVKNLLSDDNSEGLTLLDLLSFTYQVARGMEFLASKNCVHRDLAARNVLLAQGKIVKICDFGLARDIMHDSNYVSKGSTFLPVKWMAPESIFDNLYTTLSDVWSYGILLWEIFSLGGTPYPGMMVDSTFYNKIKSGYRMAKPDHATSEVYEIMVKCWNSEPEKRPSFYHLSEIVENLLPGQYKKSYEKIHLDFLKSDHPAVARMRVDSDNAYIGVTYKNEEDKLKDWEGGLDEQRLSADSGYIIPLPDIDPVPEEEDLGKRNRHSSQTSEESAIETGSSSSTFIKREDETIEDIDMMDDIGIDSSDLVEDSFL

Compound | inhibition of PDGFR-α (PDGFR-α) | vascular permeability / opening of the BBB (Evans Blue extravasation) (BBB)
Cc1ccc(NC(=O)c2ccc(CN3CCN(C)CC3)cc2)cc1Nc1nccc(-c2cccnc2)n1 [Gleevec®, imatinib mesylate] | at least partially inhibit | 
PDGF-AA: active platelet-derived growth factor AA dimer (from Preprotech Inc.) |  | induce increased vascular permeability
